ChEMBL document CHEMBL1201862, “PubChem BioAssay data set” (2004)
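Values below derive from 48-hour exposures of cells grown in 96-well plates, with endpoints linearly interpolated between the two concentrations bracketing the appropriate inhibition level. Abbreviation: GI50, concentration required for 50% inhibition of growth.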 The source made the active and inactive calls. No stated cut-off is given here; in the data, active = GI50 up to about 1.1 µM and inactive = higher.

Assays:
Experiment in all cases: inhibition of tumour cell growth, NCI panel, 48 h
DU-145 = test system: DU-145
A498 = test system: A498
RXF 393 = test system: RXF 393
OVCAR-4 = test system: OVCAR-4
SF-295 = test system: SF-295
OVCAR-8 = test system: OVCAR-8
M14 = test system: M14
MDA-N = test system: MDA-N
PC-3 = test system: PC-3
KM12 = test system: KM12
MCF7 = test system: MCF7
SNB-75 = test system: SNB-75
Hs-578T = test system: Hs-578T
UACC-257 = test system: UACC-257
SNB-19 = test system: SNB-19
T47D = test system: T47D
SW-620 = test system: SW-620
TK-10 = test system: TK-10
SK-MEL-28 = test system: SK-MEL-28
MDA-MB-435 = test system: MDA-MB-435

Measured: GI50

COc1cc2nc(-c3ccc4ccccc4c3)nc(O)c2cc1OC
inactive: DU-145 > 100 µM | A498 72.9 µM | RXF 393 41.7 µM | OVCAR-4 42.9 µM | SF-295 48.9 µM | OVCAR-8 43.2 µM | M14 > 100 µM | MDA-N > 100 µM | PC-3 > 100 µM | KM12 > 100 µM | MCF7 > 100 µM | SNB-75 13.8 µM | Hs-578T 53.2 µM | UACC-257 > 100 µM | SNB-19 23.8 µM | T47D > 100 µM

Cc1cn(CC2=NCC(C)N2)c(=O)[nH]c1=O (stereo unspecified)
inactive: DU-145 > 100 µM | A498 > 100 µM | RXF 393 > 100 µM | SF-295 > 100 µM | OVCAR-8 > 100 µM | SW-620 > 100 µM | M14 > 100 µM | MDA-N > 100 µM | TK-10 > 100 µM | PC-3 > 100 µM | MCF7 > 100 µM | SNB-75 > 100 µM | Hs-578T > 100 µM | UACC-257 > 100 µM | SNB-19 > 100 µM | SK-MEL-28 > 100 µM | T47D > 100 µM

O=[N+]([O-])c1cc(-c2ccc([As](=O)(O)O)cc2)ccc1[As](=O)(O)O
inactive: DU-145 > 100 µM | MDA-MB-435 > 100 µM | A498 > 100 µM | RXF 393 > 100 µM | OVCAR-4 > 100 µM | SF-295 > 100 µM | OVCAR-8 > 100 µM | SW-620 > 100 µM | M14 > 100 µM | MDA-N > 100 µM | TK-10 > 100 µM | PC-3 > 100 µM | KM12 > 100 µM | Hs-578T > 100 µM | UACC-257 > 100 µM | SNB-19 > 100 µM | SK-MEL-28 > 100 µM | T47D > 100 µM

O=C1C=CC(=O)c2c(NCC3CC3)ccc(NCC3CC3)c21
inactive: MDA-MB-435 19.7 µM | A498 60.5 µM | SF-295 33.7 µM | OVCAR-8 56.2 µM | SW-620 34.5 µM | M14 18.5 µM | TK-10 > 100 µM | PC-3 46.2 µM | KM12 33.6 µM | MCF7 24.7 µM | Hs-578T 82.8 µM | UACC-257 29.3 µM | SNB-19 > 100 µM | SK-MEL-28 28.6 µM | T47D 6.34 µM

O=C1NC(Nc2ccccc2)=NC(C(F)(F)F)(C(F)(F)F)N1
inactive: DU-145 35.9 µM | MDA-MB-435 43 µM | OVCAR-4 39.6 µM | SF-295 37 µM | OVCAR-8 40.2 µM | SW-620 71.8 µM | M14 21.4 µM | MDA-N 25.1 µM | TK-10 68.4 µM | PC-3 20.5 µM | KM12 41.6 µM | MCF7 37.9 µM | SNB-75 11.5 µM | Hs-578T 55.3 µM | UACC-257 59.7 µM | SK-MEL-28 47.2 µM | T47D 36.4 µM

CC(=O)c1cccc(NC(=O)C(=O)c2c(O)oc3ccccc3c2=O)c1
inactive: MDA-MB-435 > 100 µM | A498 > 100 µM | RXF 393 > 100 µM | OVCAR-4 > 100 µM | SF-295 > 100 µM | OVCAR-8 > 100 µM | SW-620 > 100 µM | M14 > 100 µM | MDA-N > 100 µM | TK-10 > 100 µM | PC-3 > 100 µM | KM12 > 100 µM | MCF7 > 100 µM | SNB-75 > 100 µM | Hs-578T > 100 µM | UACC-257 > 100 µM | SNB-19 > 100 µM | SK-MEL-28 > 100 µM | T47D > 100 µM

CC1=C/C(=N/N2C(=O)/C(=C/c3ccc(Cl)cc3)N=C2c2ccccc2)CC(C)(C)C1
inactive: MDA-MB-435 51.3 µM | A498 > 100 µM | RXF 393 91.6 µM | OVCAR-4 45.9 µM | SF-295 51.9 µM | OVCAR-8 32.7 µM | SW-620 76.2 µM | M14 > 100 µM | MDA-N 67.6 µM | TK-10 89.5 µM | PC-3 61.2 µM | KM12 51.1 µM | MCF7 49.8 µM | SNB-75 31.5 µM | Hs-578T 52 µM | UACC-257 69.2 µM | SNB-19 65.5 µM | SK-MEL-28 > 100 µM | T47D 85.9 µM

Cn1c(=O)c2c(nc3[nH]c(=O)c(Br)cn32)n(C)c1=O
inactive: DU-145 > 100 µM | MDA-MB-435 > 100 µM | A498 > 100 µM | RXF 393 > 100 µM | OVCAR-4 > 100 µM | SF-295 > 100 µM | OVCAR-8 > 100 µM | SW-620 > 100 µM | M14 > 100 µM | MDA-N > 100 µM | TK-10 > 100 µM | PC-3 > 100 µM | KM12 > 100 µM | SNB-75 > 100 µM | Hs-578T > 100 µM | UACC-257 > 100 µM | SNB-19 > 100 µM | SK-MEL-28 > 100 µM | T47D > 100 µM

O=C(N/N=C(COc1ccc([N+](=O)[O-])cc1)\N=C\c1ccncc1)c1ccncc1
inactive: DU-145 > 100 µM | MDA-MB-435 > 100 µM | A498 > 100 µM | RXF 393 > 100 µM | OVCAR-4 > 100 µM | SF-295 > 100 µM | OVCAR-8 60.1 µM | SW-620 > 100 µM | M14 > 100 µM | MDA-N > 100 µM | TK-10 > 100 µM | PC-3 > 100 µM | KM12 > 100 µM | MCF7 > 100 µM | SNB-75 94.6 µM | UACC-257 > 100 µM | SNB-19 > 100 µM | SK-MEL-28 > 100 µM | T47D > 100 µM

CC(C)N1CCCOC(c2ccc([N+](=O)[O-])cc2)O1 (stereo unspecified)
inactive: DU-145 > 100 µM | MDA-MB-435 > 100 µM | A498 > 100 µM | RXF 393 > 100 µM | OVCAR-4 > 100 µM | SF-295 > 100 µM | OVCAR-8 > 100 µM | SW-620 > 100 µM | M14 > 100 µM | MDA-N > 100 µM | TK-10 > 100 µM | PC-3 > 100 µM | KM12 > 100 µM | MCF7 80.9 µM | SNB-75 > 100 µM | UACC-257 > 100 µM | SNB-19 > 10 µM | SK-MEL-28 > 100 µM | T47D > 100 µM

Cc1ccc(C(=O)/C=C2\Nc3ccccc3S\C2=N\CS(=O)(=O)c2ccc(C)cc2)cc1
inactive: DU-145 > 10 µM | MDA-MB-435 > 10 µM | OVCAR-4 4.02 µM | SF-295 > 10 µM | OVCAR-8 > 10 µM | SW-620 > 10 µM | M14 > 10 µM | MDA-N > 10 µM | TK-10 > 10 µM | PC-3 > 10 µM | KM12 > 10 µM | MCF7 4.3 µM | SNB-75 > 10 µM | Hs-578T 8.43 µM | UACC-257 > 10 µM | SNB-19 > 10 µM | SK-MEL-28 > 10 µM | T47D 8.2 µM
